The values that follow come from patent US20110092488A1, “Quninoline Methanol Compounds for the Treatment and Prevention of Parasitic Infections” (priority 2005, published 2011).

One may read the IC50 as the point on the concentration scale where inhibition reaches its midpoint.

The test system of series [1] is Balb/c 3T3 mouse fibroblast cells. As to the kind of experiment: 3T3 neutral red uptake (NRU) phototoxicity test. Format: cell-based. The settings on record: UVA 5 J/cm2; potential to be phototoxic if PIF > 5.0. The source says: A pharmacophore for phototoxicity was developed to be used as an in silico screening tool to determine the minimum phototoxic concentration for a number of AAQMS (WR069878 and those indicated in Table 5). Minimum phototoxic concentration in a yeast assay for a number of AAQMS, as per Ison et al.; Phototoxicity of Quinoline methanols and other drugs in mice and yeast; J. Invest. Dermatol. (52)193-198 (1969) were used to generate a three-dimensional pharmacophore model using the HypoGen algorithm of the […]® (Accelrys software Inc.) methodology as per Bhattacharjee et al.; A 3D QSAR pharmacophore model and quantum chemical structure—activity analysis of chloroquine(CQ)-resistance reversal; J. Chem Inf. Comput Sci. (42) 1212-1220 (2002), and Dow et al.; as discussed in Antimicrob Agents Chemother. (48)2624-2632 (2004), cited above, both Bhattacharjee et al. and Dow et al, incorporated herein, by reference. The structures of clinically used quinoline methanols were mapped onto the pharmacophores and estimated values for minimum phototoxic concentration were generated. The 3T3 neutral red uptake (NRU) phototoxicity test, conducted by MB Research Laboratories (Spinnerstown, Pa.), was used to identify quinoline methanols (WR069878 and those in Table 5) that have the potential to exert in vivo phototoxicity after systemic application. Briefly, the central 60 wells of two 96-well plates per AAQM were seeded with Balb/c 3T3 mouse fibroblast cells and maintained in culture for 24 hrs. These plates were then pre-incubated with a range of eight different concentrations of test compound (six wells per concentration) for one hour. Next, one plate was treated with a UVA dose of 5 J/cm2 by irradiating for 50 min at 1.7 mW/cm2, whereas the other plate remained non-treated and in the dark. Next, the treatment medium was replaced with culture medium and cell viability was determined after 24 hrs by measuring neutral red uptake for 3 hrs. Finally, the 3T3 NRU Phototox Prediction Software (version 2.0, ZEBET) was used to calculate EC50 values and Photo-Irritant Factors (PIF) for each compound. […]

The conditions of series [2]: by 'injection'; Ison and Davis, 1969; cited from earlier work.
Series [3] has as its system yeast. The settings on record: Ison and Davis, 1969; cited from earlier work.
In series [4] the test system is P. falciparum W2. As to the kind of experiment: In vitro antimalarial activity against P. falciparum W2. Format: cell-based, Plasmodium falciparum. The protocol: (§1) The in vitro activities of AAQMs against P. falciparum strains W2, D6, TM91C235 and TM90C2A were evaluated using the method of Desjardins et al. as modified by Milhous et al. W2 is chloroquine resistant and mefloquine sensitive, D6 is chloroquine sensitive but naturally less susceptible to mefloquine, TM91C235 is resistant to mefloquine, chloroquine and pyrimethamine as is TM90C2A, however this latter parasite is a two pfmdr1 copy strain. We routinely run mefloquine in this screen as a control to ensure assay validity.

The test system of series [5] is P. falciparum TM91C235. Nature of the series: In vitro antimalarial activity against P. falciparum TM91C235. In kind it is cell-based, Plasmodium falciparum. As to the method:
as §1

The nature of series [6]: Phototoxicity in mice (historical experiments). The conditions noted are these: WR030090: 25 or 50 mg/kg orally, WRAIR archival data.
Series [7] concerns P. falciparum TM90C2A. As to the kind of experiment: In vitro antimalarial activity against P. falciparum TM90C2A. Format: cell-based, Plasmodium falciparum. The protocol:
as §1

The conditions of series [8]: single mefloquine treatment dose; cited from earlier work.
Series [9] concerns primary rat forebrain neurons. Nature of the series: Neurocytotoxicity assay (MTT). The protocol:
The neurocytotoxicity assay of AAQMs was conducted as per Dow et al.; The antimalarial potential of 4-quinolinecarbinolamines may be limited due to neurotoxicity and cross-resistance in mefloquine-resistant Plasmodium falciparum strains; Chemother. (48) 2624-2632 (2004) and is incorporated herein, by reference. This assay utilizes primary rat forebrain neurons and is a multi-endpoint screen. […] The AAQMs outlined in Table 1 were screened at 10, 100 and 1000 μM in triplicate, and the reduction in viability observed was determined using the 3-(4,5-dimethylthiazol-2-yl)-2,5-diphenyltetrazolium bromide (MTT) assay as per Dow et al., discussed above. Approximate IC50 values were calculated on the basis of the level of inhibition observed at each concentration. Full dose response assays were run for mefloquine and WR069878 with two fold dilutions (n=6 wells per dilution) and 11 dilutions for each drug. IC50s were calculated using Prism. Each time the assay is conducted, 20 μM mefloquine is included, as a control. […] Assays are re-run if the loss of viability induced by mefloquine is <40% or >60%. Neuroprotection experiments with 6,7-dinitroquinoxaline-2,3-dione (DNQX) and magnesium were performed as per Dow et al.; Transcriptional profiling of mefloquine-induced disruption of calcium homeostasis in neurons in vitro; Genomics (86)539-550 (2005), which is incorporated by reference, herein. Neurons were exposed to DNQX (100 μM) or magnesium (12 mM) for 5 min, followed by mefloquine (25 μM) or WR069878 (250 μM) for 20 min after which reduction in cell viability was determined. […] DNQX is an inhibitor of non-N-methyl-D-aspartate (NMDA) receptors, whilst magnesium inhibits the functioning of the inositol 1,4,5-trisphosphate (IP3)-mediated calcium signaling pathway at several points. The effects of mefloquine and WR069878 on neuronal calcium homeostasis were assessed utilizing confocal microscopy as per Dow et al, as discussed in Antimicrob Agents Chemother. (48)2624-2632 (2004), cited above, and incorporated by reference, herein. Briefly neurons were loaded with calcium sensitive dye Fluo 3-A for 1 h and were washed prior to image experiments. Neurons were ‘spiked’ with 100 μM mefloquine or WR069878. Subsequent changes in neuronal calcium homeostasis were recorded as fluctuations in the emitted fluorescence of fluo-3-complexed calcium at 530 nm (excitation was 488 nm). Sequential image scans of fields containing 5-25 neurons were used to construct temporal profiles. Scans were made at 10 s intervals. Fluorescence levels for each neuron were normalized 12 to time zero values. Data were then pooled from three and five independent experiments for mefloquine and WR069878 respectively.

Series [10] relates to neuronal calcium homeostasis. As to the kind of experiment: Neuronal calcium homeostasis, confocal microscopy (Fluo-3). The settings on record: 100 μM, FIG. 2(b). As to the method:
(§2) The neurocytotoxicity assay of AAQMs was conducted as per Dow et al.; The antimalarial potential of 4-quinolinecarbinolamines may be limited due to neurotoxicity and cross-resistance in mefloquine-resistant Plasmodium falciparum strains; Chemother. (48) 2624-2632 (2004) and is incorporated herein, by reference. This assay utilizes primary rat forebrain neurons and is a multi-endpoint screen. […] The AAQMs outlined in Table 1 were screened at 10, 100 and 1000 μM in triplicate, and the reduction in viability observed was determined using the 3-(4,5-dimethylthiazol-2-yl)-2,5-diphenyltetrazolium bromide (MTT) assay as per Dow et al., discussed above. Approximate IC50 values were calculated on the basis of the level of inhibition observed at each concentration. […] IC50s were calculated using Prism. […] Neurons were exposed to DNQX (100 μM) or magnesium (12 mM) for 5 min, followed by mefloquine (25 μM) or WR069878 (250 μM) for 20 min after which reduction in cell viability was determined. […] The effects of mefloquine and WR069878 on neuronal calcium homeostasis were assessed utilizing confocal microscopy as per Dow et al, as discussed in Antimicrob Agents Chemother. […] Subsequent changes in neuronal calcium homeostasis were recorded as fluctuations in the emitted fluorescence of fluo-3-complexed calcium at 530 nm (excitation was 488 nm). […]

Series [11] relates to P. falciparum D6. As to the kind of experiment: In vitro antimalarial activity against P. falciparum D6. In kind it is cell-based, Plasmodium falciparum. As to the method:
as §1
The combined effects of azithromycin (as represented by compound 196 on the horizontal axes of FIG. 4 through 6) and WR074086 (as represented by compound 14885 on vertical axes of FIGS. 4 through 6) against three strains of P. falciparum were investigated using isobologram analysis. First, the IC50s of each compound were determined as described above.

Series [12] deals with primary rat forebrain neurons. As to the kind of experiment: Neuroprotection experiments with DNQX and magnesium. The conditions noted are these: DNQX 100 μM or magnesium 12 mM; mefloquine 25 μM, WR069878 250 μM; FIG. 2(c). The protocol:
as §2

For series [13] the following is noted: rats; cited from earlier work.
The target of series [14] is human multiple drug resistance transporter (MDR1), P-glycoprotein (Homo sapiens, UniProt P08183). The conditions noted are these: not told; cited from earlier work.
For series [15] the following is noted: humans; cited from earlier work.
The procedure of series [16]: The AAQMs indicated in Table 1 (10 μM) were added to a mixture containing an NADPH-regenerating buffer (1.25 mM β-NADP+, 3.3 mM glucose-6-phosphate, and 3.3 mM MgCl2) and 0.5 mg/ml pooled human liver microsomes to a final volume of 125 μl. The mixtures were incubated for 5 minutes at 37° C. and the reactions were initiated by adding 25 μl glucose-6-phosphate dehydrogenase to a final concentration of 1 unit/ml. The reactions were maintained at 37° C. until they were terminated by the addition of an equal volume of 100% ice cold acetonitrile at 0, 10, 30, 60, and 120 minutes. Samples were centrifuged to pellet the proteins and the supernatant was analyzed by LC-MS/MS in duplicate using fast LC gradient or isocratic methods. AAQM concentrations were quantified with external calibration, using plots of response v. amount. Chromatograms were analyzed using the mass spectrometry software Xcalibur® QuanBrowser (for ThermoFinnigan® instruments) or MassLynx® (for Waters® instruments). Concentrations of AAQMs remaining at each time point were calculated using the unknown peak areas and corresponding calibration curves. In order to calculate the half-life, a first-order rate of decay was assumed. […] All reagents were purchased from Sigma except for the microsomes, which were obtained from BD Gentest®. For metabolite identification, samples were prepared as described above with human liver microsomes. Additional samples were prepared with for each AAQM using mouse, rat, and rhesus monkey liver microsomes. Samples were separated using an LC gradient method and analyzed by full scan LC-MS and LC-MS/MS. […] These MS/MS data were also used to do preliminary structural elucidation. […] The relative percentage of formation of each metabolite was determined in a semi-quantitative manner since standards of each metabolite were not available. Peak areas of each detected AAQM metabolite and the internal standard were determined, and their ratios were calculated as metabolite area/internal standard area. The percent formation of each metabolite was determined as the area ratio divided by the sum of all the metabolite area ratios.

In brackets after ≈: the same amount, converted by molar mass. Read-outs that look alike come from different tables or passages of the source.

With `OC(c1cc(-c2ccccc2)nc2c(Cl)cc(Cl)cc12)C1CCCCN1` (stereo not drawn) [WR007930], in series [1], the “Photo Irritant Factor (PIF)” value was determined as 29.0. Further, the “Minimum phototoxic dose in mice” value in series [2] is listed as “Minimum phototoxic dose is 7 mg/kg”. Also, the “Yeast minimum phototoxic concentration” value in series [3] is given as 31 mg/ml^c.
With `OC(c1cc(C(F)(F)F)nc2c(C(F)(F)F)cccc12)C1CCCCN1` (stereo not drawn) [Mefloquine, reference compound], in [4], the “IC90 against W2” value is 0.0039 µg/mL (≈ 0.0103 µM). Also, the “Activity against P. falciparum TM91C235 (IC50 in ng/ml)” value in series [5] was 15 ng/mL. Also, the IC50 was 0.035 µM in series [5] (Table 4, read-out: Median IC50 against P. falciparum TM91C235); 20 µM in [9] (read-out: Median IC50 against rat neurons, Table 4); 27 µM in series [9] (read-out: Neurotoxicity IC50, full dose response, FIG. 2(a)); 20 µM in series [9] (read-out: Neurotoxicity ranking (IC50 in μM), approximate IC50 from screen at 10, 100 and 1000 μM, MTT). For the same compound, the “Mean IC50 +/- SD against P. falciparum TM91C235” value in [5] (control, last 15 assays) is 0.0157 ± 0.0027 µg/mL. Further, the “IC90 against TM91C235” value in [5] (text b26) was found to be 0.089 µg/mL (≈ 0.235 µM). Besides, the Phototoxicity in mice result in series [6] is given as “Not phototoxic at tolerated doses”. In addition, the “IC90 against TM90C2A” value in [7] stood at 0.101 µg/mL (≈ 0.267 µM). Also, in series [8], the Peak plasma concentrations was 800 to 8000 ng/mL. Further, the “Effect on intracellular calcium (Fluo-3 fluorescence)” value in [10] is “increases intracellular calcium concentrations”. Also, the “IC90 against D6” value in series [11] came out at 0.02 µg/mL (≈ 0.0529 µM). For the same compound, in [12], the “Neurotoxicity blocked by DNQX and supra-physiological magnesium” value is listed as “is blocked”. The entries for the “Maximum concentration in CNS” value in series [13] and in series [15] were 113 µM and 52 µM, respectively. The PgP interaction result in series [14] is “PgP substrate and inhibitor”. In [16], the “Half-life, human liver microsomes” value was greater than 2 h.
